Read-outs that look alike come from different tables or passages of the source.
What was measured:
[1] = tested on: NIH 3T3; experiment: Cell viability assay (MTT), NIH 3T3; type: cell-based, mouse; conditions: 10% FBS, 1% DMSO
In short: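 MTT viability in medium with 10% FBS and 1% DMSO, with cells seeded 24 h before treatment at 0–200 μM (11 concentrations). There were two formats: 6-day (3–15 10^3 cells, re-fed every 3 days) or 16-hour (5–10 10^4 cells). Absorbance was read at 550 nm, giving IC50 (50% cell death) as mean±SEM.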

[2] = tested on: HepG2; experiment: Cell viability assay (MTT), HepG2; type: cell-based; conditions: Homo sapiens, 10% FBS, 16-hours treatment, 1% DMSO
Protocol: (§1) Table 15: 16-hour cell viability assay (MTT) in the presence of 10% Fetal Bovine Serum and 1% DMSO, in HCT116, MDA-MB-231, NIH3T3, HepG2 and primary hepatocytes. 5 10^4 to 10 10^4 cells were seeded in 48-well plates in growth medium containing 10% FBS, with or without various concentrations of test compounds. Data were analyzed and IC50s were calculated from dose-reponse curves using GraphPad Prism. Results summarized in the tables are mean±SEM of 1 to 2 independent experiments.
(§2) In order to determine a compound's effect on cell viability, microculture tetrazolium assays (MTT) were performed as described by Carmichael et al. (1996) with modifications. Four human tumoral cell lines, namely HCT116 colon adenocarcinoma, H460 lung carcinoma, MCF-7 and MDA-MB-231 breast carcinoma cell lines, DLD1 colorectal adenocarcinoma, HeLa adenocarcinoma, HepG2 hepatocellular carcinoma. 3 immortalized but non tumorigenic cell lines, namely NIH3T3 mouse fibroblasts (American Type Culture Collection) and primary hepatocytes (Biopredic international), cultured according to their recommendations together with Human Microvasculature Endothelial Cell line HMEC1 (National Center for Infectious Diseases). Briefly, cells were seeded in 48-well plates 24 hours before drug addition. Cells were treated with 0 to 200 μM (11 concentrations) of compound solubilized in DMSO, adjusting the final concentration of DMSO to 1% in the well. 16 hours, and three or six days after treatment, 0.5 mg/ml MTT (Sigma) was added to the medium and cells were incubated for 1-5 hours at 37° C. before solubilization of formazan crystals in 100% DMSO. Absorbance was measured using a spectrophotometer at a wavelength of 550 nm. Data was analyzed using the GraphPad Prism software (GraphPad Software, Inc.), and IC50 (dose leading to 50% cell death) was calculated from the dose-response curves.

[3] = tested on: Primary Hepatocytes; experiment: Cell viability assay (MTT), primary hepatocytes; type: cell-based; conditions: Hepatocyte, 10% FBS, 16-hours treatment, 1% DMSO
Protocol: as §1, §2

[4] = tested on: HMEC1; experiment: Boyden chamber migration assay, HMEC1; type: cell-based; conditions: Homo sapiens, read-out: IC50, migration in Boyden chamber, HMEC1
Protocol: (§3) FIG. 4: Migration assays. (A) Wound healing assay in REF cells. 7.6 10^4 cells were plated on coverslips 48 hours before the experiment. The cells were pre-treated for 30 min. with the compounds, and then a scrape was done using a pipette tip. The scraped coverslips in treatment medium were put under a thermostated microscope coupled to a video camera. Movies were analyzed as described in material and methods, and velocity and total distance covered by the cells were evaluated. Bar graphs represent the mean±SEM of 2 to 4 experiments. (B) Boyden chamber migration assay in HMEC1, NIH3T3 and MDA-MB-231 cells. 5 10^4 to 7.5 10^4 Cells, resuspended in culture medium with or without FBS and with different compound concentrations, were seeded in the upper Boyden blind well on top of 8 μm pore-sized filters. The ability of the cells to migrate through the filter was assayed in the absence or presence of FBS in the lower Boyden chamber. After 16 hours incubation, the medium was removed and replaced with calcein-AM containing medium. After labeling, cells were washed with HBSS and fluorescence was read in a fluorescence plate reader. Fluorescence values were normalized against the fluorescence obtained for the 1% DMSO control. The data plotted are the means±SEM of 2 to 4 independent experiments.
An essential characteristic of malignant cells is their ability to migrate, invade host tissues and to produce metastases. In order to evaluate the capacity of one compound to affect the ability of tumoral cells to migrate, migration assays were performed using highly invasive tumoral cells MDA-MB-231, endothelial cells HMEC1 or fibroblastic cells NIH3T3. This assay was performed using Falcon HTS Fluoroblock inserts. […] Fluorescence data were collected using Fluoroskan Ascent FL fluorescence plate reader at an excitation wavelength (Ex) of 485 nm and emission wavelength (Em) of 517 nm. Only those labelled cells that passed through the Matrigel layer and the membrane were detected. […]

[5] = tested on: NIH3T3; experiment: Boyden chamber migration assay, NIH3T3; type: cell-based, mouse; conditions: Mus musculus, FBS as chemoattractant
Protocol: as §3
An essential characteristic of malignant cells is their ability to migrate, invade host tissues and to produce metastases. In order to evaluate the capacity of one compound to affect the ability of tumoral cells to migrate, migration assays were performed using highly invasive tumoral cells MDA-MB-231, endothelial cells HMEC1 or fibroblastic cells NIH3T3. This assay was performed using Falcon HTS Fluoroblock inserts. Culture medium containing Fetal Bovine Serum (FBS; which is used as a chemoattractant) was added to the plate wells and 2 10^4 to 7.5 10^4 cells resuspended in medium without FBS and with 0.1% BSA were added to each insert well. The compound of interest was added to the medium in both the upper and the lower chambers. Plates were incubated for 16 hours at 37° C. Following incubation, the medium was removed from the upper chamber and the entire insert plate was transferred to a second 24-well plate containing 4 μg/ml Calcein-AM™ in medium containing 0.1% BSA. The plates were incubated for one hour at 37° C., rinsed with Hanks Buffered Saline (HBSS). Fluorescence data were collected using Fluoroskan Ascent FL fluorescence plate reader at an excitation wavelength (Ex) of 485 nm and emission wavelength (Em) of 517 nm. Only those labelled cells that passed through the Matrigel layer and the membrane were detected. Data were analyzed using the GraphPad Prism software and IM50s (dose at which 50% inhibition of cell migration is observed) were calculated.

[6] = tested on: Salmonella typhimurium TA 98 and TA 100 strains; experiment: Screening Ames test; conditions: with and without S9 mix; 10 to 5000 μg per plate
Description: The objective of this study was to evaluate the potential of the test items to induce reverse mutation in Salmonella Typhimurium (TA 98 and TA 100 strains). The bacterial reverse mutation test is able to identify substances that cause point mutations, by substitution, addition or deletion of one or a few DNA base-pairs. Mutagenic substances can induce reversion in histidine deficient strains which are then able to grow and form colonies in a histidine-limited medium, while non-reverted cannot. This test is performed in the absence and presence of a rat liver metabolising system (S9 mix). Three known mutagens are used to check sensitivity of test system: sodium azide, 2-nitrofluorene and 2-anthramine.
The dose levels per plate were of 10 to 5000 μg. A preliminary toxicity test was performed followed by the mutagenecity test per se.

[7] = Mus musculus, NIH3T3, 16 h, 16-hours treatment
[8] = HMEC-1, FBS as chemoattractant, 16 hours
[9] = Mus musculus, NIH3T3, 144 h, 6-day treatment

Compound	IC50 ([1]; 6-day treatment, trihydrochloride)	IC50 [1, 7]	IC50 [2]	IC50 [3]	IC50 [4, 8]	IC50 ([5]; NIH3T3, 16 h)	mutagenic activity [6]	IC50 [1, 9]	IC50 ([4]; HMEC-1, 16 h)	IC50 ([5]; NIH3T3, 16 hours)
CN1CCN(Cc2cc(=O)c(OCCCCCSc3ccnc4cc(C(F)(F)F)ccc34)co2)CC1.Cl.Cl.Cl [EHT 9241, 5-(5-(7-(Trifluoromethyl)quinolin-4-ylthio)pentyloxy)-2-((4-methylpiperazin-1-yl)methyl)-4H-pyran-4-one trihydrochloride]	8.7 µM	25.6 µM	11.3 µM	29.6 µM	9.1 ± 1.4 µM	4.7 ± 0.6 µM	did not show any mutagenic activity			
Cl.Cl.O=c1cc(CN2CCOCC2)occ1OCCCCCSc1ccnc2cc(C(F)(F)F)ccc12 [EHT 1864, 5-(5-(7-(Trifluoromethyl)quinolin-4-ylthio)pentyloxy)-2-(morpholinomethyl)-4H-pyran-4-one dihydrochloride]		69.3 µM	60 µM	> 50 µM			did not show any mutagenic activity	19.8 µM	7.8 ± 1.7 µM	20.4 ± 3.5 µM
Cl.Cl.Cl.O=c1cc(CN2CCNCC2)occ1OCCCCCSc1ccnc2cc(C(F)(F)F)ccc12 [EHT 8560, 5-(5-(7-(Trifluoromethyl)quinolin-4-ylthio)pentyloxy)-2-((piperazin-1-yl)methyl)-4H-pyran-4-one trihydrochloride]			9.75 µM	17.3 µM	9.5 ± 0.3 µM	10 ± 0.6 µM	did not show any mutagenic activity	5.1 µM		
